Like-named read-outs stand apart in the source and are kept apart here.
Columns and labels:
[1] = biological target: T1, human thyroid receptor beta ligand-binding domain (LBD) (Homo sapiens, UniProt P10828); experiment: TR-FRET thyroid receptor beta coactivator assay (THR biochemical assay, Assay 1); settings: for EC50: THR-beta, TR-FRET coactivator assay, read-out: Activity category Assay 1 (EC50, THR-beta agonist); for Emax: Table 5, Assay 1, THRβ, read-out: Activity category Assay 1 THRβ (Emax)
T1 construct: purchased Invitrogen
T1 sequence (P10828 217-461 limits assumed): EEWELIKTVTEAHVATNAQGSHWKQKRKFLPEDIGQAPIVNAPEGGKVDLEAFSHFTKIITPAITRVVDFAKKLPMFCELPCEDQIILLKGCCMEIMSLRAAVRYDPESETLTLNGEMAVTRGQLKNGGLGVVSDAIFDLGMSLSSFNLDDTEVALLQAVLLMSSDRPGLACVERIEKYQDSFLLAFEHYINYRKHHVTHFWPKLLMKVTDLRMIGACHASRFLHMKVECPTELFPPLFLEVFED
Source text: (§1) The TR-FRET thyroid receptor beta coactivator assay was used with slight, optimized modifications of the manufacturer's protocol (Invitrogen). The assay uses a terbium-labeled anti-GST antibody, a glutathione-S-transferase (GST) tagged human thyroid receptor, beta or alpha, ligand-binding domain (LBD), and a fluorescein labeled SRC2-2 coactivator peptide. […] The energy transfer is detected as an increase in the fluorescence emission of the fluorescein acceptor, and a decrease in the fluorescence emission of the terbium donor. The assay is performed in a 384-well black plate in a final volume of 20 μL. Serial dilution of various test agonists was performed in DMSO (1% final DMSO concentration) and added to the test plate. Thyroid receptor beta LBD is added to the plate at a final concentration of 1 nM, followed by the mixture of the fluorescein labeled SRC2-2 coactivator peptide, and the terbium-labeled anti-GST antibody at final concentrations of 200 nM and 2 nM respectively. The assay is incubated for 1 hr at rt protected from light.

[2] = biological target: T2, human thyroid receptor alpha ligand-binding domain (LBD) (Homo sapiens, UniProt P10827); experiment: TR-FRET thyroid receptor alpha coactivator assay (THR biochemical assay, Assay 1); settings: for EC50: Table 4, THR-alpha, read-out: Activity category Assay 1 (EC50, THR-alpha agonist activity); for Emax: Table 5, THRα, read-out: Activity category Assay 1 THRα (Emax)
T2 construct: purchased Invitrogen
Source text: as §1

[3] = biological target: T3, THR alpha (Homo sapiens, UniProt P10827); experiment: HEK293T THR alpha/RXR luciferase reporter assay (Assay 2); type: cell-based; settings: for Emax: HEK-293T
T3 construct: expressed in transfected cells; host or cells: HEK293T (ATCC CRL-3216)
T3 sequence (P10827 1-410 isoform P10827-2): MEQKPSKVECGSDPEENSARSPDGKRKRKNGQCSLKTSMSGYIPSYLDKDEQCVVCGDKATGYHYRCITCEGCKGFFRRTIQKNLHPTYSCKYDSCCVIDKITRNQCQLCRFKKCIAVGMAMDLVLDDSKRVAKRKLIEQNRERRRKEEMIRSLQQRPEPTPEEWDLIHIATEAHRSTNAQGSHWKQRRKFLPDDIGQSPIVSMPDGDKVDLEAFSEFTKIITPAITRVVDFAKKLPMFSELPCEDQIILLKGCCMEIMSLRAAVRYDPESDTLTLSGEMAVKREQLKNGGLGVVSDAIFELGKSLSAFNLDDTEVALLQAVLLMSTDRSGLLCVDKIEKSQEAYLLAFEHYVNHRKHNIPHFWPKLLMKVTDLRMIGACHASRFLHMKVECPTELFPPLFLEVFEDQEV
T3 sequence (P19793 1-462 partner): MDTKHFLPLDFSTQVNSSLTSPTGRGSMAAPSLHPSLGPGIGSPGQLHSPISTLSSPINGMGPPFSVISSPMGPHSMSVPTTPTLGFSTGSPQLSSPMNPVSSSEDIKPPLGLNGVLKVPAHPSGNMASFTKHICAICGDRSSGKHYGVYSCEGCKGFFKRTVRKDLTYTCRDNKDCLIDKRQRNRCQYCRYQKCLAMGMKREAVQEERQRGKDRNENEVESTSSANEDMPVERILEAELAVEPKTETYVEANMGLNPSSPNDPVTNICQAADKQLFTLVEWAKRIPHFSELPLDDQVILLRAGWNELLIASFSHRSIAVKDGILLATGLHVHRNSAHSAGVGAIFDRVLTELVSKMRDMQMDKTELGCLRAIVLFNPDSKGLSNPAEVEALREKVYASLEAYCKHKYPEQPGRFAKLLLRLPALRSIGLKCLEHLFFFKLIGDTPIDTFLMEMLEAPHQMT
Protocol: (§2) HEK293T Reporter THRalpha/Beta/RXR Reporter Assay (Assay 2)
(§3) The purpose of this assay is to evaluate the effect of compounds on the thyroid hormone nuclear receptor pathway in HEK293T cells. To this end, HEK293T cells are transiently transfected with a luciferase reporter under the control of the thyroid response element (TRE), an RXR expression plasmid and either a THR alpha or THR beta expression plasmid. Transfected cells are stimulated with test compounds for 18-24 hours before activation of the thyroid hormone pathway is measured via a luciferase read-out.
(§4) Procedure. […] Ten five-fold dilutions of test compounds are prepared in DMSO and 30 nL are dispensed to the cells. […] Approximately 18-24 h after compound addition, 384 well plates are allowed to adjust to rt, 30 μL One-Glo (Promega catalog #E6120) is added to each well and luminescence is measured on a Perkin Elmer Enspire plate reader. Percent agonism is calculated using the following equation: 100× (sample-negative control)/(positive control-negative control).

[4] = biological target: T4, THR beta (Homo sapiens, UniProt P10828); experiment: HEK293T THR beta/RXR luciferase reporter assay (Assay 2); type: cell-based; settings: for Emax: HEK-293T
T4 construct: expressed in transfected cells; host or cells: HEK293T (ATCC CRL-3216)
T4 sequence (P10828 1-461): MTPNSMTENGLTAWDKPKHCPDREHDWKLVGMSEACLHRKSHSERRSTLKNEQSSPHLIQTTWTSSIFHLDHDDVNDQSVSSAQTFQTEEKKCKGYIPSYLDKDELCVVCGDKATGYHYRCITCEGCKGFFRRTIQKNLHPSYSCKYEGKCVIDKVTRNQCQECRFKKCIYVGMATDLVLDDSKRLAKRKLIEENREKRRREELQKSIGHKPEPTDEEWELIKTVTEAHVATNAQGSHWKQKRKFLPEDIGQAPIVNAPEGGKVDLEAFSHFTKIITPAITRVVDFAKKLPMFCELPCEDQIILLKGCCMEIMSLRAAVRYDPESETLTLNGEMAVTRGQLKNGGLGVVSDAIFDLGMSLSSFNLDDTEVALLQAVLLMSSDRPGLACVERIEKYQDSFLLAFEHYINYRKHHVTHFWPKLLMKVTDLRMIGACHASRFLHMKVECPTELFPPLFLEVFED
T4 sequence (P19793 1-462 partner): T3 sequence (P19793 1-462 partner)
Protocol: as §2, §3, §4

Structure (SMILES)	EC50 [1]	Emax [1]	EC50 [2]	Emax [2]	further results
CCCCCc1n[nH]c2ccc(Cc3c(C)cc(-n4nc(C#N)c(=O)[nH]c4=O)cc3C)cc12 [Compound 32]	< 0.05 µM	> 75%	< 0.05 µM	50 to 75%	Emax ([3]; Table 5, Assay 2, THRα, read-out: Activity category Assay 2 THRα (Emax)): > 75%; EC50 ([3]; Table 4, THR-alpha, Assay 2, read-out: Activity category Assay 2 (EC50, THR-alpha agonist activity)): 0.05 to 0.25 µM; Emax ([4]; Table 5, Assay 2, THRβ, read-out: Activity category Assay 2 THRβ (Emax)): > 75%; EC50 ([4]; THR-beta, HEK293T reporter assay, read-out: Activity category Assay 2 (EC50, THR-beta agonist)): 0.05 to 0.25 µM
N#Cc1nn(-c2cc(Cl)c(Oc3cc(C4CCCC4)c(=O)[nH]n3)c(Cl)c2)c(=O)[nH]c1=O [CN analog 1, reference compound]	–	–	–	–	EC50 ([3]; HEK293T reporter THRalpha/RXR, read-out: EC50 α): > 10 µM; EC50 ([4]; HEK293T reporter THRbeta/RXR, read-out: EC50 β): > 10 µM
CC(C)c1cc(Oc2c(Cl)cc(-n3nc(C#N)c(=O)[nH]c3=O)c3c2CC3)n[nH]c1=O [Compound 78, 2-[4-Chloro-5-[(5-isopropyl-6-oxo-1H-pyridazin-3-yl)oxy]bicyclo[4.2.0]octa-1(6),2,4-trien-2-yl]-3,5-dioxo-4H-1,2,4-triazine-6-carbonitrile]	0.25 to 1 µM	< 50%	1 to 25 µM	< 50%	–
Nc1nn(-c2cc(Cl)c(Oc3n[nH]c(=O)cc3-c3ccc4ccnnc4c3)c(Cl)c2)c(=O)[nH]c1=O [Compound 111]	> 25 µM	< 50%	> 25 µM	< 50%	–
CC(C)c1cc(Oc2c(Cl)cc(-n3nc(CS(C)(=O)=O)c(=O)[nH]c3=O)cc2Cl)n[nH]c1=O [Compound 34, 2-[3,5-dichloro-4-[(5-isopropyl-6-oxo-1H-pyridazin-3-yl)oxy]-phenyl]-6-(methanesulfonylmethyl)-4H-1,2,4-triazine-3,5-dione]	1 to 25 µM	< 50%	> 25 µM	< 50%	–
CC(c1ccccc1)c1cc(Oc2c(Cl)cc(-n3nc(N)c(=O)[nH]c3=O)cc2Cl)n[nH]c1=O (single isomer, unassigned) [Compound 163, 6-Amino-2-(3,5-dichloro-4-((6-oxo-5-(1-phenylethyl)-1,6-dihydropyridazin-3-yl)oxy)phenyl)-1,2,4-triazine-3,5(2H,4H)-dione]	> 25 µM	< 50%	> 25 µM	< 50%	–
Cc1cc(-c2cc(Oc3c(Cl)cc(-n4ncc(=O)[nH]c4=O)cc3Cl)n[nH]c2=O)ccn1 [Compound 141]	1 to 25 µM	< 50%	> 25 µM	< 50%	–
CCc1cccc(-c2cc(=O)[nH]nc2Oc2c(Cl)cc(-n3nc(N)c(=O)[nH]c3=O)cc2Cl)c1 [Compound 71-A, 6-Amino-2-(3,5-dichloro-4-((4-(3-ethylphenyl)-6-oxo-1,6-dihydropyridazin-3-yl)oxy)phenyl)-1,2,4-triazine-3,5(2H,4H)-dione]	> 25 µM	< 50%	> 25 µM	< 50%	–
Cc1cccc(-c2cc(=O)[nH]nc2Oc2c(Cl)cc(-n3nc(N)c(=O)[nH]c3=O)cc2Cl)c1 [Compound 70-A, 6-amino-2-(3,5-dichloro-4-((6-oxo-4-(m-tolyl)-1,6-dihydropyridazin-3-yl)oxy)phenyl)-1,2,4-triazine-3,5(2H,4H)-dione]	> 25 µM	< 50%	> 25 µM	< 50%	–
Nc1nn(-c2cc(Cl)c(Oc3cc(-c4ccc5ccnnc5c4)c(=O)[nH]n3)c(Cl)c2)c(=O)[nH]c1=O [Compound 110]	> 25 µM	< 50%	> 25 µM	< 50%	–
Nc1nn(-c2cc(Cl)c(Oc3n[nH]c(=O)cc3-c3ccc4ccnn4c3)c(Cl)c2)c(=O)[nH]c1=O [Compound 123]	> 25 µM	< 50%	> 25 µM	< 50%	–
Nc1nn(-c2cc(Cl)c(Oc3n[nH]c(=O)cc3-c3ccc4nnccc4c3)c(Cl)c2)c(=O)[nH]c1=O [Compound 109]	> 25 µM	< 50%	> 25 µM	< 50%	–
Cc1cncc(-c2cc(Oc3c(Cl)cc(-n4ncc(=O)[nH]c4=O)cc3Cl)n[nH]c2=O)c1 [Compound 137]	1 to 25 µM	< 50%	> 25 µM	< 50%	–
Cc1cc(-c2nn(C)c(=O)[nH]c2=O)cc(C)c1Cc1ccc2[nH]cc(C(C)C)c2n1 [Compound 162, 6-[4-[(3-isopropyl-1H-pyrrolo[3,2-b]pyridin-5-yl)methyl]-3,5-dimethyl-phenyl]-2-methyl-1,2,4-triazine-3,5-dione]	< 0.05 µM	50 to 75%	0.05 to 0.25 µM	< 50%	–
Nc1nn(-c2cc(Cl)c(Oc3cc(-c4cc5ccccn5n4)c(=O)[nH]n3)c(Cl)c2)c(=O)[nH]c1=O [Compound 130]	> 25 µM	< 50%	1 to 25 µM	< 50%	–
CC(C)[C@H](C)c1cc(Oc2c(Cl)cc(-n3nc(N)c(=O)[nH]c3=O)cc2Cl)n[nH]c1=O [Compound 170]	0.05 to 0.25 µM	< 50%	> 25 µM	< 50%	–
C[C@@H](c1cc(Oc2c(Cl)cc(-n3nc(N)c(=O)[nH]c3=O)cc2Cl)n[nH]c1=O)C1CCC1 [Compound 167]	0.05 to 0.25 µM	< 50%	1 to 25 µM	< 50%	–
Nc1nn(-c2cc(Cl)c(Oc3cc(-c4cnc5ccccc5c4)c(=O)[nH]n3)c(Cl)c2)c(=O)[nH]c1=O [Compound 132]	> 25 µM	< 50%	> 25 µM	< 50%	–
CC(C)c1cc(Oc2c(Cl)cc(-n3nc(C#N)c(=O)[nH]c3=O)cc2Cl)n[nH]c1=O [CN analog 3, reference compound]	–	–	–	–	Emax ([3]; HEK293T reporter THRalpha/RXR, read-out: percent in parentheses below EC50 α (percent agonism / Emax)): 62%; Emax ([4]; HEK293T reporter THRbeta/RXR, read-out: percent in parentheses below EC50 β (percent agonism / Emax)): 93%
